Measurements reported in patent US10537521B2 (priority 2016, dated 2020).
Values joined by “and” are separate entries in the source; they are usually repeats but may differ in a detail not shown here. Equal values may be shown once. Where a name gives a salt, the structure may show the parent alone. Read-outs that look alike come from different tables or passages of the source.

Key:
[1] = Example 1: multiple-dose randomized 3-way crossover PK study of two IV tramadol regimens vs 100 mg oral q6h; details: human, plasma; for concentration at 1 h: C1 h
Protocol: A fitted curve was obtained because the second oral peak was not measured in the study. For the modeling portion of the analysis, a validated Phoenix® WinNonlin® program version 6.4 (Certara) was used for PK analysis, simulation, graphics, tables and statistical calculations. […] For purposes of nonlinear regression, the data were weighted as 1/observed. Predicted concentration-time data were calculated based on the individual fitted PK parameters.

[2] = cited from earlier work; for CL/F (total clearance): humans n=10 male
[3] = Example 4: multiple dose steady-state dose proportionality study, tramadol injection 50/100 mg IV and Ultram tablet 50/100 mg oral q6h; format: in vivo, human; details: for Cmax, tramadol, Mean ± SD / Cmin, tramadol, Mean ± SD / Tmax, tramadol, Mean ± SD: steady-state, healthy volunteers
Protocol: The study was an open-label, single-period, randomized, parallel treatment design. Subjects received study drug every 6 hours beginning on the morning of Day 1 and ending on the morning of Day 3. The first dose on Day 1 and the last dose on Day 3 were administered after a minimum 10 hour fast.

[4] = iv, 50 mg, plasma concentration, Mean, 50 mg IV Dose (h 0, 2, 4, then q4h to h 44), Time […]
[5] = Tramadol dosed as 50 mg IV every 6 hours
[6] = Tramadol dosed as 100 mg IV every 6 hours
[7] = Tramadol dosed as Oral (Ultram tablet) every 6 hours

`COc1cccc([C@]2(O)CCCC[C@H]2CN(C)C)c1` (racemic) [Tramadol, (±)cis-2-[(dimethylamino)methyl]-1-(3-methoxyphenyl) cyclohexanol hydrochloride] gave a concentration at 44.5 h ([1]; iv, 50 mg, plasma concentration, Mean, 50 mg IV Dose (h 0, 2, 4, then q4h to h 44), Time 44.5 hr) of 655 ng/mL, a concentration at 44.8 h ([1]; iv, 50 mg, plasma concentration, Mean, 50 mg IV Dose (h 0, 2, 4, then q4h to h 44), Time 44.8 hr) of 645 ng/mL and a concentration at 45 h ([1]; iv, 50 mg, plasma concentration, Mean, 50 mg IV Dose (h 0, 2, 4, then q4h to h 44), Time 45.0 hr) of 610 ng/mL. The concentration at 45.5 h ([1]; iv, 50 mg, plasma concentration, Mean, 50 mg IV Dose (h 0, 2, 4, then q4h to h 44), Time 45.5 hr) was 553 ng/mL, the concentration at 46 h ([1]; iv, 50 mg, plasma concentration, Mean, 50 mg IV Dose (h 0, 2, 4, then q4h to h 44), Time 46.0 hr) was 528 ng/mL and the concentration at 47 h ([1]; iv, 50 mg, plasma concentration, Mean, 50 mg IV Dose (h 0, 2, 4, then q4h to h 44), Time 47.0 hr) was 490 ng/mL. For the same molecule, the concentration at 16 h [1, 4] was 388 ng/mL, the concentration at 24 h [1, 4] was 413 ng/mL and the concentration at 48 h [1, 4] was 434 ng/mL. It also gave an AUC(0-t) ([1]; iv, 75 mg, AUC0-24, 75 mg IV regimen (h 0, 3, 6, then q6h to h 42), mean) of 9930 ng·h/mL, an AUC(0-t) ([1]; iv, 75 mg, AUC0-48, 75 mg IV regimen (h 0, 3, 6, then q6h to h 42), mean) of 19300 ng·h/mL and an AUC ([1]; iv, 75 mg, AUC24-48, 75 mg IV regimen (h 0, 3, 6, then q6h to h 42), mean) of 9930 ng·h/mL. It also gave an AUC ([1]; iv, 75 mg, AUCtau 1, 75 mg IV regimen (h 0, 3, 6, then q6h to h 42), first dosing interval, mean) of 1250 ng·h/mL, an AUC ([1]; iv, 75 mg, AUCtau n, 75 mg IV regimen (h 0, 3, 6, then q6h to h 42), last dosing interval, mean) of 3040 ng·h/mL and a concentration at 3 h ([1]; iv, 75 mg, C3, 75 mg IV regimen (h 0, 3, 6, then q6h to h 42), mean) of 237 ng/mL. It also gave a concentration at 48 h ([1]; iv, 75 mg, C48 (T48), 75 mg IV regimen (h 0, 3, 6, then q6h to h 42), mean) of 354 ng/mL, a concentration at 1 h ([1]; iv, 75 mg, 75 mg IV regimen (h 0, 3, 6, then q6h to h 42), mean) of 361 ng/mL and a Cmax ([1]; iv, 75 mg, Cmax(0-3), 75 mg IV regimen (h 0, 3, 6, then q6h to h 42), first dose, mean) of 484 ng/mL. For the same molecule, the Cmax ([1]; iv, 75 mg, Cmax(3-6), 75 mg IV regimen (h 0, 3, 6, then q6h to h 42), mean) was 756 ng/mL, the Cmax ([1]; iv, 75 mg, Cmax(42-48), 75 mg IV regimen (h 0, 3, 6, then q6h to h 42), steady-state, mean) was 827 ng/mL and the Cmax ([1]; iv, 75 mg, Cmax, 75 mg IV regimen (h 0, 3, 6, then q6h to h 42), mean) was 932 ng/mL. For the same molecule, the Tmax ([1]; iv, 75 mg, Tmax(0-3), 75 mg IV regimen (h 0, 3, 6, then q6h to h 42), mean) was 0.5 h, the Tmax ([1]; iv, 75 mg, Tmax(3-6), 75 mg IV regimen (h 0, 3, 6, then q6h to h 42), mean) was 3.31 h and the Tmax ([1]; iv, 75 mg, Tmax(42-48), 75 mg IV regimen (h 0, 3, 6, then q6h to h 42), mean) was 42.4 h. The Tmax ([1]; iv, 75 mg, Tmax, 75 mg IV regimen (h 0, 3, 6, then q6h to h 42), mean) was 15.9 h, the AUC(0-t) ([1]; po, 100 mg, AUC0-24, 100 mg oral q6h to h 42, mean) was 7490 ng·h/mL and the AUC(0-t) ([1]; po, 100 mg, AUC0-48, 100 mg oral q6h to h 42, mean) was 19100 ng·h/mL. The AUC ([1]; po, 100 mg, AUC24-48, 100 mg oral q6h to h 42, mean) was 11600 ng·h/mL, the AUC ([1]; po, 100 mg, AUCtau 1, 100 mg oral q6h to h 42, first dosing interval, mean) was 1490 ng·h/mL and the AUC ([1]; po, 100 mg, AUCtau n, 100 mg oral q6h to h 42, last dosing interval, mean) was 3480 ng·h/mL. The concentration at 6 h ([1]; po, 100 mg, C6, 100 mg oral q6h to h 42, mean) was 197 ng/mL, the concentration at 48 h ([1]; po, 100 mg, C48 (T48), 100 mg oral q6h to h 42, mean) was 497 ng/mL and the concentration at 1 h ([1]; po, 100 mg, 100 mg oral q6h to h 42, mean) was 278 ng/mL. The Cmax ([1]; po, 100 mg, Cmax(0-6), 100 mg oral q6h to h 42, first dose, mean) was 377 ng/mL, the Cmax ([1]; po, 100 mg, Cmax(42-48), 100 mg oral q6h to h 42, steady-state, mean) was 701 ng/mL and the Cmax ([1]; po, 100 mg, Cmax, 100 mg oral q6h to h 42, mean) was 701 ng/mL. It also gave a Tmax ([1]; po, 100 mg, Tmax(0-6), 100 mg oral q6h to h 42, mean) of 1.54 h, a Tmax ([1]; po, 100 mg, Tmax(42-48), 100 mg oral q6h to h 42, mean) of 44 h and a Tmax ([1]; po, 100 mg, Tmax, 100 mg oral q6h to h 42, mean) of 44 h. The “absolute bioavailability of the oral dose” value ([2]; 100 mg PO vs IV, based on AUC values, hydrochloride) was 68±13% and 68%, the first pass metabolism ([2]; 100 mg PO, estimated) was about 20% and the “estimated absorption of the oral dose” value ([2]; 100 mg PO) was 86-88%. For the same molecule, the “CL/F (total clearance)” value ([2]; 100 mg i.v., hydrochloride) was 467 ± 124 mL/min, the “CL/F (total clearance)” value ([2]; 100 mg i.v., listed as tramadol, hydrochloride) was 710 ± 174 mL/min and the “time to peak serum concentration (tmax)” value ([2]; 100 mg oral dosing) was “approximately 2 hours”. The “CL/F (total clearance)” value ([2]; 100 mg p.o., hydrochloride) was 710 ± 174 mL/min, the “CL/F (total clearance)” value ([2]; 100 mg p.o., listed as tramadol, hydrochloride) was 467 ± 124 mL/min and the “Cmax, tramadol, Mean ± SD” value [3, 5] was 541 ± 126 ng/mL. For the same molecule, the “Cmin, tramadol, Mean ± SD” value [3, 5] was 203 ± 50 ng/mL, the “Tmax, tramadol, Mean ± SD” value [3, 5] was 0.375 ± 0.189 h and the “Cmin, tramadol, Mean ± SD” value ([3]; Tramadol dosed as 50 mg Oral (Ultram tablet) every 6 hours) was 213 ± 93 ng/mL. For the same molecule, the “Cmax, tramadol, Mean ± SD” value [3, 6] was 1250 ± 236 ng/mL, the “Cmin, tramadol, Mean ± SD” value [3, 6] was 539 ± 172 ng/mL and the “Tmax, tramadol, Mean ± SD” value [3, 6] was 0.406 ± 0.442 h. For the same molecule, the “Cmax, tramadol, Mean ± SD” value [3, 7] was 703 ± 210 ng/mL, the “Cmin, tramadol, Mean ± SD” value [3, 7] was 405 ± 151 ng/mL and the AUC ([3]; human, plasma, iv, 50 mg) was 1970 ± 453 ng·h/mL. It also gave an AUC(0-inf) ([3]; human, plasma, iv, 50 mg) of 4040 ± 1060 ng·h/mL, an AUC(0-t) ([3]; human, plasma, iv, 50 mg) of 4010 ± 1050 ng·h/mL and an AUC ([3]; human, plasma, iv, 100 mg) of 4730 ± 1240 ng·h/mL. The AUC(0-inf) ([3]; human, plasma, iv, 100 mg) was 11400 ± 4540 ng·h/mL, the AUC(0-t) ([3]; human, plasma, iv, 100 mg) was 11200 ± 4270 ng·h/mL and the AUC(0-inf) ([3]; human, plasma, po, 50 mg) was 4450 ± 2110 ng·h/mL. For the same molecule, the AUC(0-t) ([3]; human, plasma, po, 50 mg) was 4360 ± 2030 ng·h/mL, the Cmax ([3]; human, plasma, po, 50 mg) was about 368 ng/mL and the AUC(0-t) ([3]; human, plasma, po, 100 mg) was 8660 ± 4260 ng·h/mL.
